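Values below derive from 48-hour exposures of cells grown in 96-well plates, with endpoints linearly interpolated between the two concentrations bracketing the appropriate inhibition level. GI50 = concentration required for 50% inhibition of growth.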 Active and inactive are the calls of the source. Cut-off read from the data, not from the text of the source: active = GI50 up to about 1.1 µM and inactive = higher.
Columns and labels:
Test in all cases: NCI anticancer screen, dose series, 48 h
[1] = tested on: DLD-1
[2] = tested on: XF498
[3] = tested on: KM-20L2
[4] = tested on: M19-MEL
[5] = tested on: DMS-114
[6] = tested on: RXF 631
[7] = tested on: LXFL 529
[8] = tested on: SNB-78
[9] = tested on: DMS-273

C/C(CCn1[nH]c(=O)ccc1=O)=N\Nc1ccc([N+](=O)[O-])cc1[N+](=O)[O-]
GI50 [1]: > 100 µM (inactive)
GI50 [2]: > 100 µM (inactive)
GI50 [3]: 33.7 µM (inactive)
GI50 [4]: > 100 µM (inactive)
GI50 [5]: 81.8 µM (inactive)
GI50 [6]: > 100 µM (inactive)
GI50 [7]: 14.6 µM (inactive)
GI50 [8]: > 100 µM (inactive)
GI50 [9]: 25.4 µM (inactive)

N=C1OC(c2cccc(Cl)c2)C(NNS(=O)(=O)c2ccccc2)=C1O (centres undefined)
GI50 [1]: 15 µM (inactive)
GI50 [3]: 39.4 µM (inactive)
GI50 [4]: 24 µM (inactive)
GI50 [5]: 17.9 µM (inactive)
GI50 [7]: 16.8 µM (inactive)
GI50 [8]: 27.4 µM (inactive)
GI50 [9]: 32.4 µM (inactive)

Cc1ccc(C2=C(c3ccccc3)C(O)(c3ccccc3)C(c3ccccc3)=C2c2ccc(C)cc2)cc1
GI50 [1]: > 100 µM (inactive)
GI50 [2]: 44.5 µM (inactive)
GI50 [3]: > 100 µM (inactive)
GI50 [4]: > 100 µM (inactive)
GI50 [6]: > 100 µM (inactive)
GI50 [7]: > 100 µM (inactive)
GI50 [8]: > 100 µM (inactive)

CC(C)(C)c1cc(-c2c3nc(c(-c4cc(C(C)(C)C)cc(C(C)(C)C)c4)c4ccc([nH]4)c(-c4cc(C(C)(C)C)cc(C(C)(C)C)c4)c4nc(c(-c5cc(C(C)(C)C)cc(C(C)(C)C)c5)c5ccc2[nH]5)C=C4)C=C3)cc(C(C)(C)C)c1
GI50 [1]: > 100 µM (inactive)
GI50 [2]: > 100 µM (inactive)
GI50 [3]: > 100 µM (inactive)
GI50 [5]: > 100 µM (inactive)
GI50 [6]: > 100 µM (inactive)
GI50 [7]: > 100 µM (inactive)
GI50 [8]: > 100 µM (inactive)
GI50 [9]: > 100 µM (inactive)

ON=C1CCC(c2ccccc2)CC1 (centres undefined)
GI50 [1]: > 100 µM (inactive)
GI50 [2]: > 100 µM (inactive)
GI50 [3]: > 100 µM (inactive)
GI50 [4]: > 100 µM (inactive)
GI50 [5]: > 100 µM (inactive)
GI50 [7]: > 100 µM (inactive)
GI50 [8]: > 100 µM (inactive)
GI50 [9]: > 100 µM (inactive)

O=[N+]([O-])c1c(/C=N/c2ccccc2)oc(-c2ccc3c(c2)OCO3)c1-c1ccc2c(c1)OCO2
GI50 [1]: > 100 µM (inactive)
GI50 [2]: > 100 µM (inactive)
GI50 [3]: > 100 µM (inactive)
GI50 [4]: > 100 µM (inactive)
GI50 [5]: 60.7 µM (inactive)
GI50 [6]: > 100 µM (inactive)
GI50 [7]: > 100 µM (inactive)
GI50 [8]: > 100 µM (inactive)
GI50 [9]: > 100 µM (inactive)

CN(C)c1n/c(=N/c2ncn[nH]2)ss1
GI50 [1]: > 100 µM (inactive)
GI50 [2]: > 100 µM (inactive)
GI50 [3]: > 100 µM (inactive)
GI50 [4]: > 100 µM (inactive)
GI50 [5]: > 100 µM (inactive)
GI50 [7]: > 100 µM (inactive)
GI50 [8]: > 100 µM (inactive)
GI50 [9]: > 100 µM (inactive)

CN1CCC(=O)/C(=C/c2ccccc2)C1
GI50 [1]: 6.24 µM (inactive)
GI50 [2]: 18.7 µM (inactive)
GI50 [3]: 12.4 µM (inactive)
GI50 [4]: 5.45 µM (inactive)
GI50 [5]: 9.68 µM (inactive)
GI50 [6]: 16.7 µM (inactive)
GI50 [7]: 6.32 µM (inactive)
GI50 [8]: 19.6 µM (inactive)
GI50 [9]: 6.55 µM (inactive)

CC1(C)CC(N(C(=O)/C=C/c2ccc([N+](=O)[O-])o2)C2CCCCC2)CC(C)(C)N1
GI50 [1]: 1.73 µM (inactive)
GI50 [2]: 11.4 µM (inactive)
GI50 [3]: 5.38 µM (inactive)
GI50 [4]: 5.11 µM (inactive)
GI50 [5]: 2.55 µM (inactive)
GI50 [6]: 10.6 µM (inactive)
GI50 [7]: 5.36 µM (inactive)
GI50 [8]: 10.5 µM (inactive)
GI50 [9]: 5.52 µM (inactive)

O=C(O)COc1ccc(C(=O)/C(SS/C(C(=O)c2ccc(OCC(=O)O)c(Cl)c2Cl)=C2\C=C(c3ccc(Cl)cc3)SS2)=C2/C=C(c3ccc(Cl)cc3)SS2)c(Cl)c1Cl
GI50 [1]: 11.6 µM (inactive)
GI50 [3]: 25.1 µM (inactive)
GI50 [4]: 7.74 µM (inactive)
GI50 [6]: 12.1 µM (inactive)
GI50 [7]: 4.61 µM (inactive)
GI50 [8]: 6.7 µM (inactive)
GI50 [9]: 18.1 µM (inactive)

CCN(CC)CCOc1ccc(C(=C2CCCCC2)c2ccc(OCCN(CC)CC)cc2)cc1
GI50 [1]: 1.93 µM (inactive)
GI50 [2]: 1.07 µM (active)
GI50 [3]: 1.27 µM (inactive)
GI50 [4]: 1.71 µM (inactive)
GI50 [6]: 1.46 µM (inactive)
GI50 [7]: 1.69 µM (inactive)
GI50 [9]: 1.52 µM (inactive)

CN(C)c1ccc(Cc2cc(C(C)(C)C)cc(C(C)(C)C)c2O)cc1
GI50 [1]: 21.8 µM (inactive)
GI50 [2]: 19.9 µM (inactive)
GI50 [3]: 18.5 µM (inactive)
GI50 [4]: 21.3 µM (inactive)
GI50 [5]: 14.6 µM (inactive)
GI50 [6]: 17.3 µM (inactive)
GI50 [7]: 15.2 µM (inactive)
GI50 [8]: 18.5 µM (inactive)
GI50 [9]: 17.4 µM (inactive)

C=C(C)[C@H](O)C(O)CC(C)[C@@H]1CCC23CC12CCC1[C@@]2(C)CCC(OC(C)=O)C(C)(C)C2CC(OC2OC(COC(C)=O)C(O)C(O)C2O)[C@]13C (some centres undefined)
GI50 [1]: 5.52 µM (inactive)
GI50 [3]: 4.53 µM (inactive)
GI50 [4]: 5.24 µM (inactive)
GI50 [5]: 4.91 µM (inactive)
GI50 [6]: 6.12 µM (inactive)
GI50 [7]: 5.32 µM (inactive)
GI50 [8]: 7.16 µM (inactive)
GI50 [9]: 5.66 µM (inactive)

CC(=O)OC1CC[C@@]2(C)C(CC[C@]3(C)C2CC=C2[C@@H]4CC(C)(C)CCC4(C)CCC23C)[C@@]1(C)C(=O)O (some centres undefined)
GI50 [1]: 10.1 µM (inactive)
GI50 [2]: 20.5 µM (inactive)
GI50 [3]: 13.9 µM (inactive)
GI50 [4]: 22.2 µM (inactive)
GI50 [5]: 16.4 µM (inactive)
GI50 [6]: 12.9 µM (inactive)
GI50 [7]: 13.3 µM (inactive)
GI50 [8]: 20.5 µM (inactive)
GI50 [9]: 16.4 µM (inactive)

Source: ChEMBL document CHEMBL1201862, “PubChem BioAssay data set” (2004)
